Our source for the IC50 and stoichiometry N values is publication PMC9683698 (Science Advances, 2022).

For test [1], the target named is T1, cPLA2 (cPLA2 group IVA, PLA2G4A) (Homo sapiens, UniProt P47712).
T1 construct: recombinant, expressed and purified from insect cells
T1 sequence (P47712 1-749): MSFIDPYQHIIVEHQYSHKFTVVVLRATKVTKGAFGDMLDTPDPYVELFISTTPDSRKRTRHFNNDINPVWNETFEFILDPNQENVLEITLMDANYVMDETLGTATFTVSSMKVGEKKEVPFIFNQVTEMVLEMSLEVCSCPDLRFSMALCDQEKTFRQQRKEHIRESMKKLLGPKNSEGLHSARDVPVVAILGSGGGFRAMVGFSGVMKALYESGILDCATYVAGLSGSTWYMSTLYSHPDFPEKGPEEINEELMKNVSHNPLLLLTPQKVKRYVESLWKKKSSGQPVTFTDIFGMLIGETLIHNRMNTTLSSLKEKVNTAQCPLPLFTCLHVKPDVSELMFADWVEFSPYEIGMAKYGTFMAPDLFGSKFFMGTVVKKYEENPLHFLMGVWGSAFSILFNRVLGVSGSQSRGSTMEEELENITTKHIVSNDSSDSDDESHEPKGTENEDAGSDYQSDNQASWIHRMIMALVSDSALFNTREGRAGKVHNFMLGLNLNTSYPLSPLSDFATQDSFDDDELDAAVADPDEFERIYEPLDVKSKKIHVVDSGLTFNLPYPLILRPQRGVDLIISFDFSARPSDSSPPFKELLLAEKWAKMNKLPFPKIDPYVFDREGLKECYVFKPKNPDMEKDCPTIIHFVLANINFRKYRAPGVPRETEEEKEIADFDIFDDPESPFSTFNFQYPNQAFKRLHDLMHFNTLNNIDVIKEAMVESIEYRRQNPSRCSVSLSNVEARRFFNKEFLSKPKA
The experiment in a line: biochemical.

The target of test [2] is SARS-CoV S ectodomain (SARS-CoV) (UniProt P59594). The test can be described thus: […], SEC buffer 20 mM tris pH 7.5, 100 mM NaCl; […].

The term IC50 denotes the concentration that inhibits the measured activity by half. A high value points to lower potency. In the case of `CCCCC/C=C\C/C=C\CCCCCCCC(=O)O` [linoleic acid], in test [1], the concentration for half-maximal inhibition (IC50) is roughly 100 µM.

What is called stoichiometry N is the number of molecules, sites or subunits per partner or assembly. Turning to “SARS-CoV S ectodomain (from UniProt P59594 14-1193) (domain or fragment)”, in test [2], the stoichiometry N came to 3.
